Results as given in ChEMBL document CHEMBL4418318, “Dynamin-1-like protein inhibitors” (2018).

Target: Dynamin-1-like protein (Homo sapiens, UniProt O00429)
Test: Inhibition of DRP1 (unknown origin) using GTP as substrate incubated for 20 mins by malachite green reagent based colorimetric assay

Dynamin-1-like protein, sequence (O00429 whole entry): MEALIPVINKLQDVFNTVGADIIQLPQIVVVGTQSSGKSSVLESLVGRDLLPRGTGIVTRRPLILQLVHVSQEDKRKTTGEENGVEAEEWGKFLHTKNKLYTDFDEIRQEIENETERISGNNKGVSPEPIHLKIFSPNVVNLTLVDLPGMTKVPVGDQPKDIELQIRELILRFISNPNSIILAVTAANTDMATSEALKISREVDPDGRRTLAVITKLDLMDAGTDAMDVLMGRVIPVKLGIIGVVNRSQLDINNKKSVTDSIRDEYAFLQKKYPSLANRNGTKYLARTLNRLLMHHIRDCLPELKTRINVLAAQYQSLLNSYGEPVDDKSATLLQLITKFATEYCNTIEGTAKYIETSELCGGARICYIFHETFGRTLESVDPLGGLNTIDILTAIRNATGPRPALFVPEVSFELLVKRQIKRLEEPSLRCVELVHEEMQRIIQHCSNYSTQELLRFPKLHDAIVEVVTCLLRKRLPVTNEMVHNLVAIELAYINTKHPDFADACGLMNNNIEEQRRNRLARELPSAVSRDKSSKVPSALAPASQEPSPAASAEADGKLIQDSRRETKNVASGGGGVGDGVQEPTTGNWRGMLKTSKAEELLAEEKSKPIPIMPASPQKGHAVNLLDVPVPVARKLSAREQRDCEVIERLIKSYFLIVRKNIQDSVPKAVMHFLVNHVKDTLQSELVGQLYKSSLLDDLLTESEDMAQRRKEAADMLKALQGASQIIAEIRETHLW

Compound: O=C(O)c1ccc(NC(=O)c2cc(Br)cn2Cc2csc(N3CCCCC3)n2)cc1
- IC50: > 100 µM
